Measurements from US7795290B2 (Genentech, Inc., priority 2004, dated 2010).

Target: T1, AKT1 (Homo sapiens, UniProt P31749)
T1 construct: purchased Upstate 14-276
Test: HTS ATP-utilizing enzyme assay, off-chip mobility-shift (Caliper HTS 250)
Format: biochemical
Details: kinase named = inhibitory activity/selectivity; test compound 10 μM; active = greater than three-sigma from mean
In short: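 AKT1 activity was measured by off-chip mobility shift (Caliper HTS 250) as the ratio of peptide substrate to phosphorylated product. Test compound was at 10 μM, with 2.5 h incubation at 20–22° C. EDTA wells served as 100% control and DMSO wells as 0%. Hits were called at three-sigma limits.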

T1 sequence (P31749 whole entry): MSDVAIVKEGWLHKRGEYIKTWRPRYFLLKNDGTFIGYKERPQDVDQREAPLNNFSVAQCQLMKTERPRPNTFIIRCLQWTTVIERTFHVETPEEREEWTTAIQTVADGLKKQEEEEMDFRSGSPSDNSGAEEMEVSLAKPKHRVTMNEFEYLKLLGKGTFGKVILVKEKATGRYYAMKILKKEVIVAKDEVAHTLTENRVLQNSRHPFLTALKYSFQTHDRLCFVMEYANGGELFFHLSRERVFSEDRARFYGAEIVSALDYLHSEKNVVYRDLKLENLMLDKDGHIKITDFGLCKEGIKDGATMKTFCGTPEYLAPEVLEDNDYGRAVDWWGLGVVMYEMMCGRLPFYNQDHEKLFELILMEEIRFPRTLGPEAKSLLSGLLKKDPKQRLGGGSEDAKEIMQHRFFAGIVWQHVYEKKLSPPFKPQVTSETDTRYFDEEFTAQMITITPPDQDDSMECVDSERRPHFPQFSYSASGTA

| Structure (SMILES) | Activity |
| --- | --- |
| CCN(CC)CCCN(C(=O)c1cccs1)c1nc(-c2cc3ccccc3o2)cs1 [N-(4-(benzofuran-2-yl)thiazol-2-yl)-N-(3-(diethylamino)propyl)thiophene-2-carboxamide] | AKT1 |
| O=C(CCN(C(=O)c1cccs1)c1nc(-c2cc3ccccc3o2)cs1)NCc1ccoc1 [N-(4-(benzofuran-2-yl)thiazol-2-yl)-N-(3-(furan-3-ylmethylamino)-3-oxopropyl)thiophene-2-carboxamide] | AKT1 |
| CC(C)CN(C(=O)CCN(C(=O)c1cccs1)c1nc(-c2cc3ccccc3o2)cs1)C1CCS(=O)(=O)C1 (stereo not shown) [N-(4-(benzofuran-2-yl)thiazol-2-yl)-N-(3-(isobutyl(1,1-dioxo-tetrahydrothiophen-3-yl)amino)-3-oxopropyl)thiophene-2-carboxamide] | AKT1 |
| O=C(CCN(C(=O)c1cccs1)c1nc(-c2cc3ccccc3o2)cs1)N1Cc2ccccc2C1 [N-(4-(benzofuran-2-yl)thiazol-2-yl)-N-(3-(isoindolin-2-yl)-3-oxopropyl)thiophene-2-carboxamide] | AKT1 |
| CNCCN(C)C(=O)CCN(C(=O)c1cccs1)c1nc(-c2cc3ccccc3o2)cs1 [N-(4-(benzofuran-2-yl)thiazol-2-yl)-N-(3-(methyl(2-(methylamino)ethyl)amino)-3-oxopropyl)thiophene-2-carboxamide] | AKT1 |
| CN(C(=O)CCN(C(=O)c1cccs1)c1nc(-c2cc3ccccc3o2)cs1)c1ccncc1 [N-(4-(benzofuran-2-yl)thiazol-2-yl)-N-(3-(methyl(pyridin-4-yl)amino)-3-oxopropyl)thiophene-2-carboxamide] | AKT1 |
| O=C(c1cccs1)N(CCCN1CCCCC1)c1nc(-c2cc3ccccc3o2)cs1 [N-(4-(benzofuran-2-yl)thiazol-2-yl)-N-(3-(piperidin-1-yl)propyl)thiophene-2-carboxamide] | AKT1 |
| O=C(CCN(C(=O)c1cccs1)c1nc(-c2cc3ccccc3o2)cs1)N1CCOCC1 [N-(4-(benzofuran-2-yl)thiazol-2-yl)-N-(3-morpholino-3-oxopropyl)thiophene-2-carboxamide] | AKT1 |
| O=C(C1CCC1)N(CCCN1CCOCC1)c1nc(-c2cc3ccccc3o2)cs1 [N-(4-(benzofuran-2-yl)thiazol-2-yl)-N-(3-morpholinopropyl)cyclobutanecarboxamide] | AKT1 |
| O=C(c1ccco1)N(CCCN1CCOCC1)c1nc(-c2cc3ccccc3o2)cs1 [N-(4-(benzofuran-2-yl)thiazol-2-yl)-N-(3-morpholinopropyl)furan-2-carboxamide] | AKT1 |
| O=C(c1cccnc1)N(CCCN1CCOCC1)c1nc(-c2cc3ccccc3o2)cs1 [N-(4-(benzofuran-2-yl)thiazol-2-yl)-N-(3-morpholinopropyl)nicotinamide] | AKT1 |
| O=C(c1ccccn1)N(CCCN1CCOCC1)c1nc(-c2cc3ccccc3o2)cs1 [N-(4-(benzofuran-2-yl)thiazol-2-yl)-N-(3-morpholinopropyl)picolinamide] | AKT1 |
| O=C(c1cccs1)N(CCCN1CCOCC1)c1nc(-c2cc3ccccc3o2)cs1 [N-(4-(benzofuran-2-yl)thiazol-2-yl)-N-(3-morpholinopropyl)thiophene-2-carboxamide] | AKT1 |
| O=C(CCN(C(=O)c1cccs1)c1nc(-c2cc3ccccc3o2)cs1)NCCOc1ccccc1 [N-(4-(benzofuran-2-yl)thiazol-2-yl)-N-(3-oxo-3-(2-phenoxyethylamino)propyl)thiophene-2-carboxamide] | AKT1 |
| O=C1CN(C(=O)CCN(C(=O)c2cccs2)c2nc(-c3cc4ccccc4o3)cs2)CCN1 [N-(4-(benzofuran-2-yl)thiazol-2-yl)-N-(3-oxo-3-(3-oxopiperazin-1-yl)propyl)thiophene-2-carboxamide] | AKT1 |
| O=C(CCN(C(=O)c1cccs1)c1nc(-c2cc3ccccc3o2)cs1)N1CCNCC1 [N-(4-(benzofuran-2-yl)thiazol-2-yl)-N-(3-oxo-3-(piperazin-1-yl)propyl)thiophene-2-carboxamide] | AKT1 |
| O=C(CCN(C(=O)c1cccs1)c1nc(-c2cc3ccccc3o2)cs1)N1CCSC1 [N-(4-(benzofuran-2-yl)thiazol-2-yl)-N-(3-oxo-3-(thiazolidin-3-yl)propyl)thiophene-2-carboxamide] | AKT1 |
| O=C(c1cccs1)N(CCCc1ccccc1)c1nc(-c2cc3ccccc3o2)cs1 [N-(4-(benzofuran-2-yl)thiazol-2-yl)-N-(3-phenylpropyl)thiophene-2-carboxamide] | AKT1 |

Now from value to molecule:

| Activity | Structure (SMILES) |
| --- | --- |
| AKT1 | CC(CO)NC(=O)CCCN(C(=O)c1cccs1)c1nc(-c2cc3ccccc3o2)cs1 (stereo not shown) [N-(4-(benzofuran-2-yl)thiazol-2-yl)-N-(4-(1-hydroxypropan-2-ylamino)-4-oxobutyl)thiophene-2-carboxamide] |
| AKT1 | C[S+]([O-])CCNC(=O)CCCN(C(=O)c1cccs1)c1nc(-c2cc3ccccc3o2)cs1 (stereo not shown) [N-(4-(benzofuran-2-yl)thiazol-2-yl)-N-(4-(2-(methylsulfinyl)ethylamino)-4-oxobutyl)thiophene-2-carboxamide] |
| AKT1 | CN(C)CCN1CCN(C(=O)CCCN(C(=O)c2cccs2)c2nc(-c3cc4ccccc4o3)cs2)CC1 [N-(4-(benzofuran-2-yl)thiazol-2-yl)-N-(4-(4-(2-(dimethylamino)ethyl)piperazin-1-yl)-4-oxobutyl)thiophene-2-carboxamide] |
| AKT1 | CN(C)S(=O)(=O)N1CCN(C(=O)CCCN(C(=O)c2cccs2)c2nc(-c3cc4ccccc4o3)cs2)CC1 [N-(4-(benzofuran-2-yl)thiazol-2-yl)-N-(4-(4-(N,N-dimethylsulfamoyl)piperazin-1-yl)-4-oxobutyl)thiophene-2-carboxamide] |
| AKT1 | CCN(CC)C1CCN(C(=O)CCCN(C(=O)c2cccs2)c2nc(-c3cc4ccccc4o3)cs2)CC1 [N-(4-(benzofuran-2-yl)thiazol-2-yl)-N-(4-(4-(diethylamino)piperidin-1-yl)-4-oxobutyl)thiophene-2-carboxamide] |
| AKT1 | CS(=O)(=O)c1ccc2c(c1)CCN2C(=O)CCCN(C(=O)c1cccs1)c1nc(-c2cc3ccccc3o2)cs1 [N-(4-(benzofuran-2-yl)thiazol-2-yl)-N-(4-(5-(methylsulfonyl)indolin-1-yl)-4-oxobutyl)thiophene-2-carboxamide] |
| AKT1 | CN(CC(O)CO)C(=O)CCCN(C(=O)c1cccs1)c1nc(-c2cc3ccccc3o2)cs1 (stereo not shown) [N-(4-(benzofuran-2-yl)thiazol-2-yl)-N-(4-((2,3-dihydroxypropyl)(methyl)amino)-4-oxobutyl)thiophene-2-carboxamide] |
| AKT1 | N#CCCN(CC1CCCO1)C(=O)CCCN(C(=O)c1cccs1)c1nc(-c2cc3ccccc3o2)cs1 (stereo not shown) [N-(4-(benzofuran-2-yl)thiazol-2-yl)-N-(4-((2-cyanoethyl)((tetrahydrofuran-2-yl)methyl)amino)-4-oxobutyl)thiophene-2-carboxamide] |
| AKT1 | O=C(CCCN(C(=O)c1cccs1)c1nc(-c2cc3ccccc3o2)cs1)N(CCO)c1ccccc1 [N-(4-(benzofuran-2-yl)thiazol-2-yl)-N-(4-((2-hydroxyethyl)(phenyl)amino)-4-oxobutyl)thiophene-2-carboxamide] |
| AKT1 | O=C(CCCN(C(=O)c1cccs1)c1nc(-c2cc3ccccc3o2)cs1)N(CCO)Cc1ccncc1 [N-(4-(benzofuran-2-yl)thiazol-2-yl)-N-(4-((2-hydroxyethyl)(pyridin-4-ylmethyl)amino)-4-oxobutyl)thiophene-2-carboxamide] |
| AKT1 | Cc1cnc(CNC(=O)CCCN(C(=O)c2cccs2)c2nc(-c3cc4ccccc4o3)cs2)cn1 [N-(4-(benzofuran-2-yl)thiazol-2-yl)-N-(4-((5-methylpyrazin-2-yl)methylamino)-4-oxobutyl)thiophene-2-carboxamide] |
| AKT1 | O=C(c1cccs1)N(CCCC(=O)N(CCCCO)C1CCCCC1)c1nc(-c2cc3ccccc3o2)cs1 [N-(4-(benzofuran-2-yl)thiazol-2-yl)-N-(4-(cyclohexyl(4-hydroxybutyl)amino)-4-oxobutyl)thiophene-2-carboxamide] |
| AKT1 | O=C(CCCN(C(=O)c1cccs1)c1nc(-c2cc3ccccc3o2)cs1)N1Cc2ccccc2C1 [N-(4-(benzofuran-2-yl)thiazol-2-yl)-N-(4-(isoindolin-2-yl)-4-oxobutyl)thiophene-2-carboxamide] |
| AKT1 | O=C(c1cccs1)N(CCCCN1CCOCC1)c1nc(-c2cc3ccccc3o2)cs1 [N-(4-(benzofuran-2-yl)thiazol-2-yl)-N-(4-morpholinobutyl)thiophene-2-carboxamide] |
| AKT1 | O=C(c1cccs1)N(CCCC(=O)N1CCCC1c1cccnc1)c1nc(-c2cc3ccccc3o2)cs1 (stereo not shown) [N-(4-(benzofuran-2-yl)thiazol-2-yl)-N-(4-oxo-4-(2-(pyridin-3-yl)pyrrolidin-1-yl)butyl)thiophene-2-carboxamide] |
| AKT1 | O=C(CCCN(C(=O)c1cccs1)c1nc(-c2cc3ccccc3o2)cs1)NCCc1ccncc1 [N-(4-(benzofuran-2-yl)thiazol-2-yl)-N-(4-oxo-4-(2-(pyridin-4-yl)ethylamino)butyl)thiophene-2-carboxamide] |
| AKT1 | O=C1CN(C(=O)CCCN(C(=O)c2cccs2)c2nc(-c3cc4ccccc4o3)cs2)CCN1 [N-(4-(benzofuran-2-yl)thiazol-2-yl)-N-(4-oxo-4-(3-oxopiperazin-1-yl)butyl)thiophene-2-carboxamide] |
| AKT1 | O=C(CCCN(C(=O)c1cccs1)c1nc(-c2cc3ccccc3o2)cs1)N1CCCCC1 [N-(4-(benzofuran-2-yl)thiazol-2-yl)-N-(4-oxo-4-(piperidin-1-yl)butyl)thiophene-2-carboxamide] |
| AKT1 | O=C(CCCN(C(=O)c1cccs1)c1nc(-c2cc3ccccc3o2)cs1)NCc1ccccn1 [N-(4-(benzofuran-2-yl)thiazol-2-yl)-N-(4-oxo-4-(pyridin-2-ylmethylamino)butyl)thiophene-2-carboxamide] |
